According to PubChem BioAssay AID2060912 (Molecular Pharmacology Branch, DTP, NCI, 2025):

System: HUVEC/MSC spheroids viability
Assay: Human HUVEC/MSC cell line growth inhibition [KRAS2];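 on viability, T/C: percent of DMSO vehicle control luminescence so 100% = untreated viability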
Details: for viability, T/C: stronger effect = lower value
Method in brief: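 Concentration ranges start near each agent's clinical Cmax, or at 10 microM if none is established, and fall by half-log increments. These ranges are tested as single agents and combinations on endothelial/mesenchymal stem cell spheroids lacking tumour cells.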

[1] = curve of first compound, second compound 0.0316 µM
[2] = curve of first compound, second compound 0.1 µM
[3] = curve of first compound, second compound 0.316 µM
[4] = curve of first compound, second compound 1 µM
[5] = curve of first compound, second compound 3.16 µM
[6] = curve of first compound, second compound 10 µM
[7] = second compound 0.0316 µM, first compound 0.0316 µM
[8] = second compound 0.0316 µM, first compound 0.1 µM
[9] = second compound 0.0316 µM, first compound 0.316 µM
[10] = second compound 0.0316 µM, first compound 1 µM
[11] = second compound 0.0316 µM, first compound 3.16 µM
[12] = second compound 0.0316 µM, first compound 10 µM
[13] = second compound 0.1 µM, first compound 0.0316 µM
[14] = second compound 0.1 µM, first compound 0.1 µM
[15] = second compound 0.1 µM, first compound 0.316 µM
[16] = second compound 0.1 µM, first compound 1 µM
[17] = second compound 0.1 µM, first compound 3.16 µM
[18] = second compound 0.1 µM, first compound 10 µM
[19] = second compound 0.316 µM, first compound 0.0316 µM
[20] = second compound 0.316 µM, first compound 0.1 µM
[21] = second compound 0.316 µM, first compound 0.316 µM
[22] = second compound 0.316 µM, first compound 1 µM
[23] = second compound 0.316 µM, first compound 3.16 µM
[24] = second compound 0.316 µM, first compound 10 µM
[25] = second compound 1 µM, first compound 0.0316 µM
[26] = second compound 1 µM, first compound 0.1 µM
[27] = second compound 1 µM, first compound 0.316 µM
[28] = second compound 1 µM, first compound 1 µM
[29] = second compound 1 µM, first compound 3.16 µM
[30] = second compound 1 µM, first compound 10 µM
[31] = second compound 3.16 µM, first compound 0.0316 µM
[32] = second compound 3.16 µM, first compound 0.1 µM
[33] = second compound 3.16 µM, first compound 0.316 µM
[34] = second compound 3.16 µM, first compound 1 µM
[35] = second compound 3.16 µM, first compound 3.16 µM
[36] = second compound 3.16 µM, first compound 10 µM
[37] = second compound 10 µM, first compound 0.0316 µM
[38] = second compound 10 µM, first compound 0.1 µM
[39] = second compound 10 µM, first compound 0.316 µM
[40] = second compound 10 µM, first compound 1 µM
[41] = second compound 10 µM, first compound 3.16 µM
[42] = second compound 10 µM, first compound 10 µM

CCNC(=O)CC1N=C(c2ccc(Cl)cc2)c2cc(OC)ccc2-n2c(C)nnc21 (centres undefined) + CNCc1ccccc1-c1csc(C(C)Nc2nc(C)nc3cc(OC)c(OC)cc23)c1 gave an IC50 [1] of over 10000 nM, an IC50 [2] of over 10000 nM and an IC50 [3] of over 10000 nM. The IC50 [4] was over 10000 nM, the IC50 [5] was over 10000 nM and the IC50 [6] was under 31.6 nM. For the same compound, the viability, T/C [7] was 89.8%, the viability, T/C [8] was 96.4% and the viability, T/C [9] was 88%. It also gave a viability, T/C [10] of 106%, a viability, T/C [11] of 114% and a viability, T/C [12] of 115%. It also gave a viability, T/C [13] of 96.8%, a viability, T/C [14] of 91.3% and a viability, T/C [15] of 109%. For the same compound, the viability, T/C [16] was 92.6%, the viability, T/C [17] was 120% and the viability, T/C [18] was 122%. It also gave a viability, T/C [19] of 75.2%, a viability, T/C [20] of 86.6% and a viability, T/C [21] of 91.3%. It also gave a viability, T/C [22] of 109%, a viability, T/C [23] of 94.1% and a viability, T/C [24] of 93.7%. The viability, T/C [25] was 69.5%, the viability, T/C [26] was 105% and the viability, T/C [27] was 98.5%. The viability, T/C [28] was 99.4%, the viability, T/C [29] was 127% and the viability, T/C [30] was 99.1%. For the same compound, the viability, T/C [31] was 86.8%, the viability, T/C [32] was 93.6% and the viability, T/C [33] was 117%. It also gave a viability, T/C [34] of 97.3%, a viability, T/C [35] of 108% and a viability, T/C [36] of 114%. It also gave a viability, T/C [37] of 0.39%, a viability, T/C [38] of 0.34% and a viability, T/C [39] of 0.4%. The viability, T/C [40] was 0.52%, the viability, T/C [41] was 0.39% and the viability, T/C [42] was 0.43%.

COC(=O)c1ccc2c(C(=Nc3ccc(N(C)C(=O)CN4CCN(C)CC4)cc3)c3ccccc3)c(O)[nH]c2c1 + C=CC(=O)N1CCN(c2nc(=O)n(-c3c(C)ccnc3C(C)C)c3nc(-c4c(O)cccc4F)c(F)cc23)C(C)C1 showed an IC50 [1] of 2670 nM, an IC50 [2] of 2770 nM and an IC50 [3] of 3640 nM. It also gave an IC50 [4] of 3140 nM, an IC50 [5] of 3920 nM and an IC50 [6] of 2420 nM. The viability, T/C [7] was 92.2%, the viability, T/C [8] was 85.4% and the viability, T/C [9] was 85.9%. It also gave a viability, T/C [10] of 61.6%, a viability, T/C [11] of 51.7% and a viability, T/C [12] of 3.33%. It also gave a viability, T/C [13] of 86.8%, a viability, T/C [14] of 101% and a viability, T/C [15] of 99.8%. It also gave a viability, T/C [16] of 66%, a viability, T/C [17] of 50.3% and a viability, T/C [18] of 0.39%. For the same compound, the viability, T/C [19] was 79.2%, the viability, T/C [20] was 87.9% and the viability, T/C [21] was 96.2%. It also gave a viability, T/C [22] of 83.4%, a viability, T/C [23] of 56.5% and a viability, T/C [24] of 3.54%. For the same compound, the viability, T/C [25] was 88.4%, the viability, T/C [26] was 101% and the viability, T/C [27] was 115%. The viability, T/C [28] was 75%, the viability, T/C [29] was 52.5% and the viability, T/C [30] was 0.39%. It also gave a viability, T/C [31] of 94.3%, a viability, T/C [32] of 149% and a viability, T/C [33] of 126%. The viability, T/C [34] was 80.5%, the viability, T/C [35] was 67.8% and the viability, T/C [36] was 0.46%. It also gave a viability, T/C [37] of 90.2%, a viability, T/C [38] of 102% and a viability, T/C [39] of 145%. The viability, T/C [40] was 85.4%, the viability, T/C [41] was 39.4% and the viability, T/C [42] was 1.51%.

CCNC(=O)CC1N=C(c2ccc(Cl)cc2)c2cc(OC)ccc2-n2c(C)nnc21 (centres undefined) was tested, and the viability, T/C (compound 0.0316 µM) was 87.2% [middle of 5 runs], the viability, T/C (compound 0.1 µM) was 86.6% [middle of 5 runs] and the IC50 (curve of compound) was over 10000 nM.

CC(=O)Nc1cccc(-n2c(=O)n(C3CC3)c(=O)c3c(Nc4ccc(I)cc4F)n(C)c(=O)c(C)c32)c1 + C=CC(=O)N1CCN(c2nc(OCC3CCCN3C)nc3c2CCN(c2cccc4cccc(C)c24)C3)CC1CC#N was tested, and the IC50 (curve of first compound, second compound 0.00949 µM) was 18.9 nM, the IC50 (curve of first compound, second compound 0.03 µM) was 17.3 nM and the IC50 (curve of first compound, second compound 0.0949 µM) was 15.4 nM. The IC50 (curve of first compound, second compound 0.3 µM) was 13.4 nM, the IC50 (curve of first compound, second compound 0.949 µM) was 15.3 nM and the IC50 (curve of first compound, second compound 3 µM) was 1.85 nM. The viability, T/C (second compound 0.00949 µM, first compound 94.9 pM) was 95.3%, the viability, T/C (second compound 0.00949 µM, first compound 0.0003 µM) was 129% and the viability, T/C (second compound 0.00949 µM, first compound 0.000949 µM) was 125%. For the same compound, the viability, T/C (second compound 0.00949 µM, first compound 0.003 µM) was 116%, the viability, T/C (second compound 0.00949 µM, first compound 0.00949 µM) was 90.5% and the viability, T/C (second compound 0.00949 µM, first compound 0.03 µM) was 23%. It also gave a viability, T/C (second compound 0.03 µM, first compound 94.9 pM) of 104%, a viability, T/C (second compound 0.03 µM, first compound 0.0003 µM) of 116% and a viability, T/C (second compound 0.03 µM, first compound 0.000949 µM) of 112%. It also gave a viability, T/C (second compound 0.03 µM, first compound 0.003 µM) of 115%, a viability, T/C (second compound 0.03 µM, first compound 0.00949 µM) of 83.8% and a viability, T/C (second compound 0.03 µM, first compound 0.03 µM) of 18.9%. It also gave a viability, T/C (second compound 0.0949 µM, first compound 94.9 pM) of 97.7%, a viability, T/C (second compound 0.0949 µM, first compound 0.0003 µM) of 130% and a viability, T/C (second compound 0.0949 µM, first compound 0.000949 µM) of 133%. It also gave a viability, T/C (second compound 0.0949 µM, first compound 0.003 µM) of 94.9%, a viability, T/C (second compound 0.0949 µM, first compound 0.00949 µM) of 71.5% and a viability, T/C (second compound 0.0949 µM, first compound 0.03 µM) of 23.5%. The viability, T/C (second compound 0.3 µM, first compound 94.9 pM) was 67%, the viability, T/C (second compound 0.3 µM, first compound 0.0003 µM) was 98.3% and the viability, T/C (second compound 0.3 µM, first compound 0.000949 µM) was 114%. The viability, T/C (second compound 0.3 µM, first compound 0.003 µM) was 97.8%, the viability, T/C (second compound 0.3 µM, first compound 0.00949 µM) was 63.6% and the viability, T/C (second compound 0.3 µM, first compound 0.03 µM) was 18.6%. The viability, T/C (second compound 0.949 µM, first compound 94.9 pM) was 84.9%, the viability, T/C (second compound 0.949 µM, first compound 0.0003 µM) was 91.8% and the viability, T/C (second compound 0.949 µM, first compound 0.000949 µM) was 108%. For the same compound, the viability, T/C (second compound 0.949 µM, first compound 0.003 µM) was 86.7%, the viability, T/C (second compound 0.949 µM, first compound 0.00949 µM) was 73.4% and the viability, T/C (second compound 0.949 µM, first compound 0.03 µM) was 17.2%. The viability, T/C (second compound 3 µM, first compound 94.9 pM) was 96.2%, the viability, T/C (second compound 3 µM, first compound 0.0003 µM) was 105% and the viability, T/C (second compound 3 µM, first compound 0.000949 µM) was 73.8%. The viability, T/C (second compound 3 µM, first compound 0.003 µM) was 32.6%, the viability, T/C (second compound 3 µM, first compound 0.00949 µM) was 2.04% and the viability, T/C (second compound 3 µM, first compound 0.03 µM) was 1.27%.
